Measured values from patent US9469615B2, “Quinoxalines and AZA-quinoxalines as CRTH2 receptor modulators” (Merck Sharp & Dohme Corp., priority 2010, dated 2016).

Molecular target: T1, hCRTH2 (Homo sapiens, UniProt Q9Y5Y4)
T1 construct: expressed in transfected cells; host or cells: HEK (human embryonic kidney) cells expressing hCRTH2; membrane preparation
T1 sequence (Q9Y5Y4 1-395): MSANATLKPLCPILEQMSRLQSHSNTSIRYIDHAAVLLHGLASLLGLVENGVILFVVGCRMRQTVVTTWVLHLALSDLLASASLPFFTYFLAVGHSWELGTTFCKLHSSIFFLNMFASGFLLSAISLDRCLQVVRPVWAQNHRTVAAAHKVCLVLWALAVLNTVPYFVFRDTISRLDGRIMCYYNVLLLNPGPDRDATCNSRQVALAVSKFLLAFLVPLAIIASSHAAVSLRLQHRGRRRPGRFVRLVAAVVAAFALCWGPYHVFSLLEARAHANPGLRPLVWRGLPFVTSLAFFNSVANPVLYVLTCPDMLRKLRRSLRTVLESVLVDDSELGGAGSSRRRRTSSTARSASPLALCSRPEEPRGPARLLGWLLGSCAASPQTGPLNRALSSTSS
Assay: Radioligand binding assay ([3H]PGD2 competition, HEK-hCRTH2 membranes)
Settings: [3H]PGD2 binding
Procedure, shortened: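 Competition against 3.0 nM [3H]PGD2 was run for 60 min at room temperature in pH 7.4 Tris-HCl buffer with EDTA, 2 mM MnCl2 and 1% DMSO, using 8-20 μg HEK-hCRTH2 membrane protein. 10 μM PGD2 set non-specific binding; filter-bound counts were read by scintillation.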

Compound | Ki (rated A-E (Table A)) [µM] | Ki (values in text) [µM]
O=C(O)CCCCc1nc2cc(S(=O)(=O)N3CCC(c4ccccc4)CC3)ccc2nc1-c1ccc(Cl)cc1 [compound 25, 5-(3-(4-chlorophenyl)-7-(4-phenylpiperidin-1-ylsulfonyl)quinoxalin-2-yl)pentanoic acid] | 0.201 to 0.7 | –
O=C(O)CCCCc1nc2cc(C(=O)N3CCC(c4ccccc4)C3)ccc2nc1-c1ccc(C(F)(F)F)cc1 (stereo not shown) [compound 26, 5-(7-(3-Phenylpyrrolidine-1-carbonyl)-3-(4-(trifluoromethyl)phenyl)-quinoxalin-2-yl)pentanoic acid] | 0.0001 to 0.002 | –
O=C(O)CCOCc1nc2cc(C(=O)N3CCC(c4ccccc4)CC3)ccc2nc1-c1ccc(Cl)cc1 [compound 29, 3-((3-(4-chlorophenyl)-7-(4-phenylpiperidine-1-carbonyl)quinoxalin-2-yl)methoxy)propanoic acid] | 0.0021 to 0.02 | –
O=C(O)C1CC(Cc2nc3cc(C(=O)N4CCC(c5ccccc5)CC4)ccc3nc2-c2ccc(Cl)cc2)C1 (stereo not shown) [compound 30, 3-((3-(4-chlorophenyl)-7-(4-phenylpiperidine-1-carbonyl)quinoxalin-2-yl)methyl)cyclobutanecarboxylic acid] | 0.0021 to 0.02 | –
O=C(O)Cc1cccc(CCCc2nc3cc(C(=O)N4CCC(c5ccccc5)CC4)ccc3nc2-c2ccc(Cl)cc2)c1 [compound 32, 2-(3-(3-(3-(4-chlorophenyl)-7-(4-phenylpiperidine-1-carbonyl)quinoxalin-2-yl)propyl)phenyl)acetic acid] | 0.0021 to 0.02 | –
O=C(O)CCCC(O)c1nc2cc(C(=O)N[C@@H]3CCCc4ccccc43)ccc2nc1-c1ccc(Cl)cc1 (stereo partly drawn) [compound 33, 5-(3-(4-chlorophenyl)-7-(((R)-1,2,3,4-tetrahydronaphthalen-1-yl)carbamoyl)quinoxalin-2-yl)-5-hydroxypentanoic acid] | 0.0201 to 0.2 | –
O=C(O)CCCC(=O)c1nc2cc(C(=O)N[C@@H]3CCCc4ccccc43)ccc2nc1-c1ccc(Cl)cc1 [compound 34, (R)-5-(3-(4-chlorophenyl)-7-((1,2,3,4-tetrahydronaphthalen-1-yl)carbamoyl)quinoxalin-2-yl)-5-oxopentanoic acid] | 0.201 to 0.7 | –
O=C(O)CCCC(F)c1nc2cc(C(=O)N[C@@H]3CCCc4ccccc43)ccc2nc1-c1ccc(Cl)cc1 (stereo partly drawn) [compound 35, 5-(3-(4-chlorophenyl)-7-(((R)-1,2,3,4-tetrahydronaphthalen-1-yl)carbamoyl)quinoxalin-2-yl)-5-fluoropentanoic acid] | 0.0201 to 0.2 | –
C[C@@H](NC(=O)c1ccc2nc(-c3ccccc3)c(CCCC(F)(F)C(=O)O)nc2c1)c1ccc(F)cc1 [compound 37, (R)-2,2-difluoro-5-(7-((1-(4-fluorophenyl)ethyl)carbamoyl)-3-phenylquinoxalin-2-yl)pentanoic acid] | 0.0201 to 0.2 | –
C[C@@H]1CN(c2ccccc2)CCN1C(=O)c1ccc2nc(-c3ccccc3)c(CCCCC(=O)O)nc2c1 [compound 41, (R)-5-(7-(2-methyl-4-phenylpiperazine-1-carbonyl)-3-phenylquinoxalin-2-yl)pentanoic acid] | 0.0021 to 0.02 | 0.0088
O=C(O)Cc1cc(F)cc(CCc2nc3cc(C(=O)N4CCC(c5ccccc5)CC4)ccc3nc2-c2ccc(Cl)cc2)c1 [compound 42, 2-(3-(2-(3-(4-chlorophenyl)-7-(4-phenylpiperidine-1-carbonyl)quinoxalin-2-yl)ethyl)-5-fluorophenyl)acetic acid] | 0.0021 to 0.02 | –
C[C@@H]1CN(c2ccc(F)cc2)CCN1C(=O)c1ccc2nc(-c3ccccc3)c(NCCCC(=O)O)nc2c1 [compound 44, (R)-4-((7-(4-(4-fluorophenyl)-2-methylpiperazine-1-carbonyl)-3-phenylquinoxalin-2-yl)amino)butanoic acid] | 0.0021 to 0.02 | –

Further lines, results first:

Ki (rated A-E (Table A)) [µM] | Ki (values in text) [µM] | Compound
0.0021 to 0.02 | – | O=C(O)CCCCc1nc2cc(C(=O)N3CC[C@@H](c4ccccc4)C3)c(F)cc2nc1-c1ccc(Cl)cc1 [compound 24, 3-(4-chlorophenyl)-6-fluoro-7-[(3(S)-phenyl-1-pyrrolidinyl)carbonyl]-2-quinoxalinepentanoic acid]
0.0021 to 0.02 | – | O=C(O)CCCCc1nc2cc(C(=O)N3CC(c4nc5ccccc5[nH]4)C3)ccc2nc1-c1ccc(F)cc1 [compound 31, 5-(7-(3-(1H-benzo[d]imidazol-2-yl)azetidine-1-carbonyl)-3-(4-fluorophenyl)quinoxalin-2-yl)pentanoic acid]
0.701 to 2.3 | 0.716 | C[C@@H](NC(=O)c1ccc2nc(-c3ccccc3)c(CCCC(=O)O)nc2c1)c1ccc(F)cc1 [compound 36, (R)-4-(7-((1-(4-fluorophenyl)ethyl)carbamoyl)-3-phenylquinoxalin-2-yl)butanoic acid]
0.0021 to 0.02 | 0.008 | C[C@@H]1CN(c2ccc(F)cc2)CCN1C(=O)c1ccc2nc(-c3ccccc3)c(CCCCC(=O)O)nc2c1 [compound 39, (R)-5-(7-(4-(4-fluorophenyl)-2-methylpiperazine-1-carbonyl)-3-phenylquinoxalin-2-yl)pentanoic acid]
0.0021 to 0.02 | – | O=C(O)CCCCc1nc2cc(C(=O)N[C@@H]3CCCc4cc(F)ccc43)ccc2nc1-c1ccccc1 [compound 40, (R)-5-(7-((6-fluoro-1,2,3,4-tetrahydronaphthalen-1-yl)carbamoyl)-3-phenylquinoxalin-2-yl)pentanoic acid]
0.0001 to 0.002 | – | O=C(O)CCCCc1nc2cc(C(=O)NCc3ccc(Cl)cc3)ccc2nc1-c1ccc(F)cc1 [compound 100]
0.0021 to 0.02 | – | O=C(O)CCCCc1nc2cc(C(=O)NCc3cccc(Cl)c3)ccc2nc1-c1ccc(F)cc1 [compound 101, 7-[[[(3-chlorophenyl)methyl]amino]carbonyl]-3-(4-fluorophenyl)-2-quinoxalinepentanoic acid]
0.0021 to 0.02 | – | O=C(O)CCCCc1nc2cc(C(=O)N[C@@H](c3ccccc3)C(F)(F)F)ccc2nc1-c1ccc(F)cc1 [compound 102, 3-(4-fluorophenyl)-7-[[(2,2,2-trifluoro-1(S)-phenylethyl)amino]carbonyl]-2-quinoxalinepentanoic acid]
0.0001 to 0.002 | – | O=C(O)CCCCc1nc2cc(C(=O)NC3Cc4ccccc4C3)ccc2nc1-c1ccc(F)cc1 [compound 103, 7-[[(2,3-dihydro-1H-inden-2-yl)amino]carbonyl]-3-(4-fluorophenyl)-2-quinoxalinepentanoic acid]
0.0021 to 0.02 | – | N#Cc1ccc(CNC(=O)c2ccc3nc(-c4ccc(F)cc4)c(CCCCC(=O)O)nc3c2)cc1 [compound 104, 7-[[[(4-cyanophenyl)methyl]amino]carbonyl]-3-(4-fluorophenyl)-2-quinoxalinepentanoic acid]
0.0021 to 0.02 | – | O=C(O)CCCCc1nc2cc(C(=O)N3CCC(c4ccccc4)CC3)ccc2nc1-c1ccc(F)cc1 [compound 105, 3-(4-fluorophenyl)-7-[(4-phenyl-1-piperidinyl)carbonyl]-2-quinoxalinepentanoic acid]
0.0001 to 0.002 | – | O=C(O)CCCCc1nc2cc(C(=O)N3CCC(c4ccccc4)C3)ccc2nc1-c1ccc(F)cc1 (stereo not shown) [compound 106, 3-(4-fluorophenyl)-7-[(3-phenyl-1-pyrrolidinyl)carbonyl]-2-quinoxalinepentanoic acid]
0.0021 to 0.02 | – | O=C(O)CCCCc1nc2cc(C(=O)NCc3ccc(OC(F)(F)F)cc3)ccc2nc1-c1ccc(F)cc1 [compound 107, 3-(4-fluorophenyl)-7-[[[[4-(trifluoromethoxy)phenyl]methyl]amino]carbonyl]-2-quinoxalinepentanoic acid]
